± gives the expanded uncertainty stated by the source.

For series [1] the following is noted: for Glass transition temperature: DSC; for Normal melting temperature: Crystal 1, DTA.
A short description of series [2]: Molar enthalpy of transition or fusion. Conditions: Crystal 1; DSC.

As for `CCCC[N+]1(C)CCCCC1.O=S(=O)([N-]S(=O)(=O)C(F)(F)F)C(F)(F)F`, in series [1], the Glass transition temperature is -72.00 ± 2 °C. Still for that read-out and setting: the figure for `COP(=O)([O-])OC.Cn1cc[n+](C)c1` [1,3-dimethylimidazolium dimethylphosphate] is -63.00 ± 2 °C.

On to `CCCC[N+]1(C)CCCCC1.O=S(=O)([O-])C(F)(F)F` [1-butyl-1-methylpiperidinium trifluoromethanesulfonate], for which the “Molar enthalpy of transition or fusion” value in series [2] came out at 5.5 ± 0.478 kcal/mol. Moreover, in series [1], the Normal melting temperature was 36.00 ± 2 °C.

Turning to `CCCCn1cc[n+](C)c1.O=S(=O)([O-])C(F)(F)F` [1-butyl-3-methylimidazolium trifluoromethanesulfonate], the “Molar enthalpy of transition or fusion” value in series [2] is 6.21 ± 0.717 kcal/mol. In addition, the Normal melting temperature in series [1] is 18.00 ± 2 °C. The like results for `CCN(C)CC.CS(=O)(=O)O` [diethylmethylammonium methanesulfonate] were, in that order, 3.35 ± 0.478 kcal/mol and 39.00 ± 2 °C. For `CC[NH+](C)CC.O=S(=O)([O-])C(F)(F)F` [diethylmethylammonium trifluoromethanesulfonate] the same measures were 4.06 ± 0.478 kcal/mol and -5.00 ± 2 °C.

The values above are taken from the NIST ThermoML archive (doi:10.1016/j.jct.2018.06.014).
